Converted amounts (≈) assume the structure as drawn. Each block holds one compound with its values, some of them ahead of it.
Key:
Test in all cases: ≥ marks a high value that may be exact or a test limit, other limits are often not marked, values filed in µg/mL are converted to µM
[1] = test system: Acinetobacter baumannii ATCC 19606
[2] = test system: Candida albicans ATCC 90028
[3] = test system: Candida parapsilosis ATCC 22019
[4] = test system: Enterococcus faecalis ATCC 29212
[5] = test system: Escherichia coli ATCC 25922
[6] = test system: Escherichia coli ML-35p
[7] = test system: Klebsiella pneumoniae ATCC 13883
[8] = test system: Legionella feeleii ATCC 35072
[9] = test system: Legionella longbeachae ATCC 33484
[10] = test system: Legionella pneumophila ATCC 33155
[11] = test system: Legionella pneumophila Paris
[12] = test system: Leishmania infantum (promastigote)
[13] = test system: Listeria ivanovii
[14] = test system: Pseudomonas aeruginosa ATCC 27853
[15] = test system: Saccharomyces cerevisiae
[16] = test system: Salmonella enterica subsp. enterica serovar Enteritidis
[17] = test system: Staphylococcus aureus ATCC 25923
[18] = test system: Staphylococcus aureus ATCC 43300
[19] = test system: Staphylococcus aureus ATCC BAA-44
[20] = test system: Staphylococcus aureus ST1065
[21] = test system: Streptococcus pyogenes ATCC 19615
[22] = test system: Pseudomonas aeruginosa 0108
[23] = test system: Pseudomonas aeruginosa CGMCC 1.860
[24] = test system: Escherichia coli K12 MG1655
[25] = test system: Staphylococcus aureus 68 HER 1049
[26] = test system: Candida albicans ATCC 2002
[27] = test system: Enterobacter cloacae ATCC 13047
[28] = test system: Escherichia coli IS117#
[29] = test system: Escherichia coli IS37#
[30] = test system: Klebsiella pneumoniae ATCC 700603
[31] = test system: Klebsiella pneumoniae IS59#
[32] = test system: Pseudomonas aeruginosa CMCCB 1010
[33] = test system: Shigella dysenteriae
[34] = test system: Klebsiella pneumoniae DM4299
[35] = test system: Pseudomonas aeruginosa DM23155
[36] = test system: Acinetobacter johnsonii NCDC 0072
[37] = test system: Bacillus cereus NCDC 0240
[38] = test system: Escherichia coli MTCC 0723
[39] = test system: Listeria monocytogenes ATCC 19111
[40] = test system: Pseudomonas aeruginosa NCDC 0105
[41] = test system: Salmonella enterica subsp. enterica serovar Typhimurium ATCC 14028
[42] = test system: Staphylococcus aureus ATCC 29213
[43] = test system: Staphylococcus aureus NCDC 0111
[44] = test system: Escherichia coli IS218#
[45] = test system: Pseudomonas aeruginosa IS350#
[46] = test system: Staphylococcus aureus IS10#

Compound: CC[C@H](C)[C@H](N)C(=O)N[C@@H](CCCCN)C(=O)N[C@@H](CCCCN)C(=O)N[C@@H](Cc1c[nH]c2ccccc12)C(=O)N[C@@H](CC(C)C)C(=O)N[C@@H](CO)C(=O)N[C@@H](CCCCN)C(=O)N[C@H](C(=O)N[C@@H](CCCCN)C(=O)N[C@@H](CCCCN)C(=O)N[C@@H](CC(C)C)C(=O)N[C@@H](CC(C)C)C(=O)N[C@@H](CCCCN)C(N)=O)[C@@H](C)CC [IKKWLSKIKKLLK]
MIC [22]: 6.25 µM (≈ 10.2 µg/mL)
MIC [23]: 3.13 µM (≈ 5.09 µg/mL)

Compound: C[C@@H](O)[C@@H]1NC(=O)CNC(=O)[C@H](CCCCN)NC(=O)[C@H](Cc2ccccc2)NC(=O)[C@@H](NC(=O)[C@H](Cc2ccccc2)NC(=O)[C@@H](N)CCCN=C(N)N)CSSC[C@@H](C(=O)NCC(=O)O)NC(=O)[C@@H]2CCCN2C1=O [RFCFKGTPCG]
MIC [26]: 17.9 µM (≈ 20 µg/mL)
MIC [2]: 17.9 µM (≈ 20 µg/mL)
MIC [3]: 17.9 µM (≈ 20 µg/mL)
MIC [27]: 8.97 µM (≈ 9.98 µg/mL)
MIC [4]: 17.9 µM (≈ 20 µg/mL)
MIC [5]: 8.97 µM (≈ 9.98 µg/mL)
MIC [28]: ≥ 44.8 µM
MIC [29]: ≥ 44.8 µM
MIC [30]: 17.9 µM (≈ 20 µg/mL)
MIC [31]: ≥ 44.8 µM
MIC [32]: ≥ 44.8 µM
MIC [33]: 17.9 µM (≈ 20 µg/mL)
MIC [17]: 4.48 µM (≈ 4.99 µg/mL)

Compound: CC[C@H](C)[C@H](NC(=O)[C@@H](N)C(C)C)C(=O)N1CCC[C@H]1C(=O)N[C@@H](Cc1ccccc1)C(=O)N[C@H](C(=O)N[C@@H](C)C(=O)N[C@@H](CO)C(=O)N[C@H](C(=O)N[C@@H](C)C(=O)N[C@@H](C)C(=O)N[C@@H](CCC(=O)O)C(=O)N[C@@H](CCSC)C(=O)N[C@@H](CCSC)C(=O)N[C@@H](CCC(N)=O)C(=O)N[C@@H](Cc1cnc[nH]1)C(=O)N[C@H](C(=O)N[C@@H](Cc1ccc(O)cc1)C(=O)N[C@H]1CSSC[C@@H](C(=O)O)NC(=O)[C@H](CCCN=C(N)N)NC(=O)[C@H](CCCCN)NC(=O)[C@H](CO)NC(=O)[C@H](C)NC(=O)[C@H](C)NC1=O)C(C)C)C(C)C)C(C)C [VIPFVASVAAEMMQHVYCAASKRC]
MIC [26]: 1.91 µM (≈ 5 µg/mL)
MIC [2]: 3.83 µM (≈ 9.99 µg/mL)
MIC [3]: 7.66 µM (≈ 20 µg/mL)
MIC [27]: 3.83 µM (≈ 9.99 µg/mL)
MIC [4]: 1.91 µM (≈ 5 µg/mL)
MIC [5]: 1.91 µM (≈ 5 µg/mL)
MIC [28]: 7.66 µM (≈ 20 µg/mL)
MIC [44]: 19.1 µM (≈ 50 µg/mL)
MIC [29]: 19.1 µM (≈ 50 µg/mL)
MIC [30]: 3.83 µM (≈ 9.99 µg/mL)
MIC [14]: 7.66 µM (≈ 20 µg/mL)
MIC [32]: 3.83 µM (≈ 9.99 µg/mL)
MIC [45]: 19.1 µM (≈ 50 µg/mL)
MIC [33]: 3.83 µM (≈ 9.99 µg/mL)
MIC [17]: 3.83 µM (≈ 9.99 µg/mL)
MIC [46]: 19.1 µM (≈ 50 µg/mL)

Results, then the compound that gave them:

MIC [1]: 3 µM (≈ 4.27 µg/mL)
MIC [2]: 6 µM (≈ 8.53 µg/mL)
MIC [3]: 25 µM (≈ 35.5 µg/mL)
MIC [4]: 6 µM (≈ 8.53 µg/mL)
MIC [5]: 3 µM (≈ 4.27 µg/mL)
MIC [6]: 3 µM (≈ 4.27 µg/mL)
MIC [7]: 3 µM (≈ 4.27 µg/mL)
MIC [8]: 3.12 µM (≈ 4.44 µg/mL)
MIC [9]: 3.12 µM (≈ 4.44 µg/mL)
MIC [10]: 3.12 µM (≈ 4.44 µg/mL)
MIC [11]: 3.12 µM (≈ 4.44 µg/mL)
MIC [12]: 10 µM (≈ 14.2 µg/mL)
MIC [13]: 3 µM (≈ 4.27 µg/mL)
MIC [14]: 6 µM (≈ 8.53 µg/mL)
MIC [15]: 3 µM (≈ 4.27 µg/mL)
MIC [16]: 6 µM (≈ 8.53 µg/mL)
MIC [17]: 3 µM (≈ 4.27 µg/mL)
MIC [18]: 3 µM (≈ 4.27 µg/mL)
MIC [19]: 3 µM (≈ 4.27 µg/mL)
MIC [20]: 3 µM (≈ 4.27 µg/mL)
MIC [21]: 1 µM (≈ 1.42 µg/mL)
Compound: CC[C@H](C)[C@H](NC(=O)CNC(=O)[C@H](CCCCN)NC(=O)[C@H](CC(C)C)NC(=O)[C@@H](N)Cc1ccccc1)C(=O)N[C@H](C(=O)NCC(=O)N[C@@H](CCSC)C(=O)N[C@@H](CC(C)C)C(=O)NCC(=O)N[C@@H](CCCCN)C(=O)N[C@@H](CC(C)C)C(=O)N[C@@H](Cc1ccccc1)C(N)=O)C(C)C [FLKGIVGMLGKLF]

MIC [24]: 18.4 µM (≈ 32 µg/mL)
MIC [25]: 18.4 µM (≈ 32 µg/mL)
Compound: CC[C@H](C)[C@H](NC(=O)CNC(=O)[C@H](CC(C)C)NC(=O)[C@H](Cc1ccccc1)NC(=O)[C@H](CC(C)C)NC(=O)[C@H](CCCCN)NC(=O)[C@H](Cc1c[nH]c2ccccc12)NC(=O)[C@@H](N)CCCCN)C(=O)N[C@@H](CC(C)C)C(=O)N[C@@H](C)C(=O)N[C@H](C(=O)N[C@@H](CC(C)C)C(=O)N[C@@H](CCCCN)C(=O)N[C@H](C(=O)N[C@@H](CC(C)C)C(=O)O)C(C)C)C(C)C [KWKLFLGILAVLKVL]

MIC [5]: 6 µM (≈ 7.95 µg/mL)
MIC [34]: 6 µM (≈ 7.95 µg/mL)
MIC [35]: 6 µM (≈ 7.95 µg/mL)
Compound: CC(=O)N[C@@H](CCCN=C(N)N)C(=O)NCC(=O)N[C@@H](CCCN=C(N)N)C(=O)N[C@@H](CCCCN)C(=O)N[C@H](C(=O)N[C@H](C(=O)N[C@@H](CCCN=C(N)N)C(=O)N[C@@H](CCCN=C(N)N)C(=O)N[C@@H](CCCCN)C(=O)N[C@@H](CCCCN)C(=O)O)C(C)C)C(C)C [RGRKVVRRKK]

MIC [36]: ≥ 50 µM
MIC [37]: 1.5 µM (≈ 3.87 µg/mL)
MIC [38]: 6 µM (≈ 15.5 µg/mL)
MIC [39]: 6 µM (≈ 15.5 µg/mL)
MIC [14]: 25 µM (≈ 64.6 µg/mL)
MIC [40]: ≥ 50 µM
MIC [41]: 50 µM (≈ 129 µg/mL)
MIC [42]: 6 µM (≈ 15.5 µg/mL)
MIC [43]: 12.5 µM (≈ 32.3 µg/mL)
Compound: CC[C@H](C)[C@H](NC(=O)[C@@H](N)CCCN=C(N)N)C(=O)N[C@@H](CCCN=C(N)N)C(=O)N[C@@H](Cc1ccccc1)C(=O)N1CCC[C@H]1C(=O)N[C@@H](Cc1c[nH]c2ccccc12)C(=O)N1CCC[C@H]1C(=O)N[C@@H](Cc1c[nH]c2ccccc12)C(=O)N[C@@H](CCCN=C(N)N)C(=O)N[C@@H](Cc1c[nH]c2ccccc12)C(=O)N1CCC[C@H]1C(=O)N[C@@H](Cc1c[nH]c2ccccc12)C(=O)N[C@@H](Cc1c[nH]c2ccccc12)C(=O)N1CCC[C@H]1C(=O)N[C@@H](CCCN=C(N)N)C(=O)N[C@@H](Cc1ccccc1)C(=O)N[C@@H](CCCN=C(N)N)C(=O)NCC(=O)O [RIRFPWPWRWPWWPRFRG]
